“Also recorded” adds a separate entry of the source. Read-outs that look alike come from different tables or passages of the source.
Legend:
GtfE = biological target: T1, GtfE (Amycolatopsis orientalis, UniProt Q9AFC6); assay: GtfE steady-state kinetics and transfer of NDP-glucose derivatives to heptapeptide aglycone; assay type: biochemical; settings: for recognition / transfer of the sugar by GtfE: vancomycin and teicoplanin aglycone acceptors, HPLC and mass spectrometry; for Km: NDP-sugar donor varied, acceptor vancomycin aglycone held at 1 mM; for Km / kcat: pH 9; for kcat: acceptor vancomycin aglycone 1 mM; for catalytic efficiency relative to native substrate: vancomycin aglycone as acceptor
T1 construct: made in house; host or cells: Escherichia coli
T1 sequence (Q9AFC6 1-409): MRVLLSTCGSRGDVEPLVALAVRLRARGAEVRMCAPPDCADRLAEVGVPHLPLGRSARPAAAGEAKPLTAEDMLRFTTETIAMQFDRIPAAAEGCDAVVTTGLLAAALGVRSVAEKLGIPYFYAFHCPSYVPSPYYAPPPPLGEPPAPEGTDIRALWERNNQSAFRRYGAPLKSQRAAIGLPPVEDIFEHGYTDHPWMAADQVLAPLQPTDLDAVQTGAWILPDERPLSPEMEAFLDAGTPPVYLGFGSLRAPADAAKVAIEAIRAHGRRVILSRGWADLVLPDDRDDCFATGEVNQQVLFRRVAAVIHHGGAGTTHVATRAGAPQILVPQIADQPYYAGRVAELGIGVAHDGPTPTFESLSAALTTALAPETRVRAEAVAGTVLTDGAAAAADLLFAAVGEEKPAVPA
Procedure: (The acceptor substrate, the vancomycin aglycone, was held constant at 1 mM in each experiment.)
Biochemistry 2001; 40(15):4745-55; and Solenberg et al. Production of hybrid glycopeptide antibiotics in vitro and in Streptomyces toyocaensis. Chem Biol 1997; 4(3):195-202. Reactions were carried out and analyzed by HPLC as previously described. […] Each 100 μL reaction contained either 1 mM vancomycin aglycone or 0.5 mM teicoplanin aglycone. […] Reactions with GtfD also contained 2 mM UDP-L-4-epi-vancosamine. 50 μL time points were taken at 0 and 20 h, and quenched with 9 vol methanol. After centrifugation, the supernatants were dried and resuspended in water for HPLC analysis. All glycosylation reactions were monitored by UV (285 nm) using a Vydac C18 small pore column with a linear gradient of 0-20 percent acetonitrile in water with 0.1 percent trifluoracetic acid. The molecular weight of new products was analyzed by Maldi-TOF mass spectrometry using a Perseptive Biosystems Voyager-DE STR mass spectrometer.
All reactions were carried out with 1 mM vancomycin aglycone as the acceptor substrate. […] Each experiment was performed in duplicate or triplicate.

[1] = biological target: thymidylyltransferase (rmlA-encoded Ep) (Salmonella typhimurium, UniProt P26393); settings: Lindquist et al. 1993, cited from earlier work
DNA = settings: estimated; unit not given; cited from earlier work
[2] = read-out: Km, forward direction

Sequence of thymidylyltransferase (rmlA-encoded Ep) (P26393 whole entry): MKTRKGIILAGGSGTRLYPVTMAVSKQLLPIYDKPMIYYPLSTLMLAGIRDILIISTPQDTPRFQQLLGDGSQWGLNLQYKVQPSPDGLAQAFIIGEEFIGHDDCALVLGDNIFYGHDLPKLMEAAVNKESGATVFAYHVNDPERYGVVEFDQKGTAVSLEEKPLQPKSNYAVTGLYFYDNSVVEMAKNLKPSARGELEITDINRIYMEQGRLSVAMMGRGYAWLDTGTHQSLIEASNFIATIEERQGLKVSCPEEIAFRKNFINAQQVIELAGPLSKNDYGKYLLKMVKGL

Molecule | Km (GtfE) | kcat (GtfE) | also measured
[N-]=[N+]=NCC1OC(OP(=O)(O)OP(=O)(O)OC[C@H]2O[C@@H](n3ccc(=O)[nH]c3=O)[C@H](O)[C@@H]2O)C(O)C(O)C1O (some centres unmarked) [UDP-6-azido-glucose] | – | – | recognition / transfer of the sugar by GtfE (GtfE): inadequate for transfer
Cc1cn(C2CC(O)C(COP(=O)(O)OP(=O)(O)OC3OC(CO)C(O)C(N)C3O)O2)c(=O)[nH]c1=O [TDP-3-NH2-glucose, Thymidine 5′-(3-amino-3-deoxy-α-D-glucopyranosyl diphosphate)] | 720 ± 60 µM | 0.06 ± 0.0033 s⁻¹ | –
TDP-2-fluoro-glucose | – | – | recognition / transfer of the sugar by GtfE (GtfE): not detectably processed
NC1C(OP(=O)(O)OP(=O)(O)OCC2OC(n3ccc(=O)[nH]c3=O)C(O)C2O)OC(CO)C(O)C1O [UDP-2-NH2-glucose, Uridine 5′-(2-amino-2-deoxy-α-D-glucopyranosyl diphosphate)] | 790 ± 80 µM | 0.045 ± 0.0033 s⁻¹ | –
Cc1cn([C@H]2C[C@H](O)[C@@H](COP(=O)(O)OP(=O)(O)O[C@H]3O[C@H](CO)[C@@H](O)[C@H](O)[C@H]3O)O2)c(=O)[nH]c1=O [TDP-glucose, Thymidine 5′-(α-D-glucopyranosyl diphosphate), reference compound] | 620 ± 90 µM | 0.483 ± 0.033 s⁻¹ | Km ([1]; read-out: Km, reverse reaction): 83 µM
O=C[C@H](O)[C@@H](O)[C@H](O)CO [UDP-xylose, UDP xylose, reference compound] | – | – | catalytic efficiency relative to native substrate (GtfE): about 10%
O=c1ccn([C@@H]2O[C@H](COP(=O)(O)OP(=O)(O)O[C@H]3O[C@H](CCl)[C@@H](O)[C@H](O)[C@H]3O)[C@@H](O)[C@H]2O)c(=O)[nH]1 [UDP-6-Cl-glucose, UDP-6-chloro-glucose] | 21000 ± 6000 µM | 0.005 ± 0.0017 s⁻¹ | catalytic efficiency relative to native substrate (GtfE): less than 0.1%
O=P(O)(O)OP(=O)(O)O [diphosphate] | – | – | Km ([1]; read-out: Km, reverse reaction): 150 µM
O=c1ccn(C2OC(COP(=O)(O)OP(=O)(O)OC3OC(CO)C(O)C(O)C3F)C(O)C2O)c(=O)[nH]1 (centres unmarked) [UDP-2-fluoro-glucose] | – | – | recognition / transfer of the sugar by GtfE (GtfE): inadequate for transfer; also recorded: not recognized
Cc1cn([C@H]2C[C@H](O)[C@@H](COP(=O)(O)OP(=O)(O)OP(=O)(O)O)O2)c(=O)[nH]c1=O [dTTP] | – | – | Km [1, 2]: 20 µM
Cc1cn([C@H]2C[C@H](O)[C@@H](COP(=O)(O)OP(=O)(O)O[C@H]3O[C@H](CO)[C@@H](N)[C@H](O)[C@H]3O)O2)c(=O)[nH]c1=O [TDP-4-NH2-glucose, Thymidine 5′-(4-amino-4-deoxy-α-D-glucopyranosyl diphosphate)] | 1100 ± 100 µM | 0.0217 ± 0.0017 s⁻¹ | –
CCN[C@H]1CO[C@@H](O[C@H]2[C@H](O[C@H]3C#CC=CC#C[C@@]4(O)CC(=O)C(NC(=O)OC)=C3/C4=C\CSSSC)O[C@H](C)[C@@H](NO[C@H]3C[C@H](O)[C@H](SC(=O)c4c(C)c(I)c(O[C@@H]5O[C@@H](C)[C@H](O)[C@@H](OC)[C@H]5O)c(OC)c4OC)[C@@H](C)O3)[C@@H]2O)C[C@@H]1OC (stereo in doubt) [calicheamicin, calicheamicin γ1^I] | – | – | affinity (DNA binding) (DNA): 10^6-10^8
O=P(O)(O)O[C@H]1O[C@H](CO)[C@@H](O)[C@H](O)[C@H]1O [α-D-glucose-1-phosphate] | – | – | Km [1, 2]: 110 µM
NC[C@H]1O[C@H](OP(=O)(O)OP(=O)(O)OC[C@H]2O[C@@H](n3ccc(=O)[nH]c3=O)[C@H](O)[C@@H]2O)[C@H](O)[C@@H](O)[C@@H]1O [UDP-6-NH2-glucose, Uridine 5′-(6-amino-6-deoxy-α-D-glucopyranosyl diphosphate)] | 1200 ± 200 µM | 0.025 ± 0.0033 s⁻¹ | –
[N-]=[N+]=NC1C(OP(=O)(O)OP(=O)(O)OCC2OC(n3ccc(=O)[nH]c3=O)C(O)C2O)OC(CO)C(O)C1O (centres unmarked) [UDP-2-azido-glucose] | – | – | recognition / transfer of the sugar by GtfE (GtfE): inadequate for transfer
